By pKa is commonly meant the negative logarithm of the acid dissociation constant. On to `Cc1cccc(NS(=O)(=O)c2ccc(N)cc2)[n+]1[O-]`, for which the pKa (acidic group) turned out to be 5.9.

Under “basic group”, `O[C@H]1[C@H](O)[C@@H](n2cnc3ccccc32)OC[C@H]1O` yielded a pKa of 4.15.

As for `CO[C@H]1C=CC2=CCN3CCC(CO)=C(CCO)[C@]23C1`, the pKa (basic group) is 7.8.

Regarding `N/C(C/C(N)=N/O)=N\O`, the pKa (basic group) was 4.77.

With `O=[N+]([O-])c1cc(Cl)c(O)c(Cl)c1`, the pKa (acidic group) turned out to be 3.7.

Take `Cc1cnc2c(O)cccc2c1C`: the pKa (acidic group) amounted to 10.1 and the pKa (basic group) came out at 5.8.

`COc1ccc(O)cc1Br` returned a pKa (acidic group) of 9.09.

On to `OCCc1cnc(P(c2ncc(CCO)[nH]2)c2ncc(CCO)[nH]2)[nH]1`, for which the pKa (basic group) was 7.7.

In turn, `O=C(O)c1cc[nH]c1` gave a pKa (acidic group) of 4.98.

The compound `O=c1oc2cc(O)ccc2cc1-c1nc2cc(Cl)ccc2o1` showed a pKa (acidic group) of 6.8.

The compound `O=C(O)CCCc1cccs1` showed a pKa (acidic group) of 4.54.

Regarding `c1nc(Cc2c[nH]c(Cc3nc(Cc4c[nH+]c[nH]4)c[nH]3)[nH+]2)c[nH]1`, the pKa (basic group) turned out to be 5.43.

Consider `Nc1ccc(S(=O)(=O)Nc2ccc(S(N)(=O)=O)cc2)cc1`, for which the pKa (acidic group) came to 7.85.

In the case of `CC(=O)CC(=O)c1ccccc1`, the pKa (acidic group) was determined as 8.69.

The compound `CNCCN(C)CC[NH2+]C` had a pKa (basic group) of 9.84.

Under “basic group”, `CN(C)c1cccc(C#N)c1` registered a pKa of 2.97.

In the case of `Cc1csc2nccn12`, the pKa (basic group) amounted to 5.36.

`CC(C)NNC1CC[NH+](C(C)C)CC1` showed a pKa (basic group) of 6.3.

`O=C(NNc1ccc(Br)cc1)c1ccncc1` returned a pKa (basic group) of 4.03.

`COCCN(C)c1ccccc1` gave a pKa (basic group) of 4.81.

Where the note is “acidic group”, `CO` yielded a pKa of 15.5.

With `Cc1cc(C)c2c(O)c(CC(=O)O)oc2c1`, the pKa (acidic group) amounted to 4.75.

Compound `Nc1nc(NCCO)nc(NCCO)n1` came in with a pKa (basic group) of 5.18.

`Cn1c(=O)c2[nH]c([N+](=O)[O-])nc2n(C)c1=O` displayed a pKa (acidic group) of 3.58.

Where the note is “basic group”, `CC(CN1CCCC(C)(C)C1)Nc1ccccn1` (stereo not drawn) gave a pKa of 9.23.

Take `Cc1nc2cccc([N+](=O)[O-])c2c(NCCC[NH+](C)C)c1C`: the pKa (basic group) worked out at 6.64.

Compound `[NH3+][C@@H](Cc1c[nH]c[nH+]1)C(=O)N[C@@H](Cc1c[nH]c[nH+]1)C(=O)O` came in with a pKa (acidic group) of 2.25.

Take `OC[C@H]1CCCN2CCCC[C@@H]12`: the pKa (basic group) was 10.2.

With `Nc1ccc(-c2ccc(N)cc2)cc1`, the pKa (basic group) was 4.96.

As for `CCC(O)CN(CC)CCO` (stereo not drawn), the pKa (basic group) was 9.1.

`CC1(C)CC(NCCO)CC(C)(C)N1` came in with a pKa (basic group) of 10.5.

The compound `CSc1ccncc1` returned a pKa (basic group) of 5.97.

As to `C[C@H](CCCNCc1ccccc1)[C@H]1CC[C@H]2[C@@H]3[C@H](O)C[C@@H]4C[C@H](O)CC[C@]4(C)[C@H]3CC[C@]12C`, under “basic group”, the pKa was determined as 9.07.

`CCN(CC)/N=C(\C)N`: the pKa (basic group) turned out to be 10.6.

Consider `O=c1ccc(O)ccc1O`, for which the pKa (acidic group) stood at 6.47.

For the setting “acidic group”, `Cc1ccc(=O)c(O)c(Br)c1` returned a pKa of 6.41.

Turning to `COC(=O)Cc1ccccc1N`, the pKa (basic group) came to 3.71.

On to `CCOC(=O)C1(c2ccccc2)CCN(C)CC1`, for which the pKa (basic group) turned out to be 8.6.

For the compound `O=C(O)c1csc([N+](=O)[O-])c1`, the pKa (acidic group) amounted to 3.24.

For the compound `O=C(C1=C(O)C(=O)c2ccccc2C1=O)c1ccccc1`, the pKa (acidic group) turned out to be 2.17.

The compound `NCCc1cccnc1` had a pKa (basic group) of 9.44.

Compound `O=C([O-])[C@@H]1O[C@H](Oc2cnc3ccccc3c2)[C@@H](O)[C@H](O)[C@H]1O` showed a pKa (basic group) of 3.95.

On to `O=C1COCC(=O)C1=O`, for which the pKa (acidic group) amounted to 7.62.

`Cc1cc(Nc2ccc(O)cc2)cc(C)c1O` had a pKa (acidic group) of 10.

In turn, `CNc1ccccn1` had a pKa (basic group) of 7.13.

The compound `OC(O)=C1SCc2ccccc21` displayed a pKa (acidic group) of 5.32.

The compound `Cc1ccnc(N)c1` returned a pKa (basic group) of 7.48.

Regarding `CCOC(=O)CC(C)=O`, the pKa (acidic group) turned out to be 10.7.

Compound `[NH3+]c1ccc(-c2nc3ccccc3s2)cc1` showed a pKa (basic group) of 0.1.

Compound `Brc1ccc2c(c1)C([P+](c1ccccc1)(c1ccccc1)c1ccccc1)c1ccccc1-2` (stereo not drawn) showed a pKa (acidic group) of 7.33.

Consider `CN(C)C(=S)c1ccccc1`, for which the pKa (basic group) is -2.3.

For `O=S(O)Cc1ccccc1`, the pKa (acidic group) worked out at 1.86.

Take `NC(=O)CS(N)(=O)=O`: the pKa (acidic group) came to 9.7.

Regarding `C/N=c1/scc(C)n1C`, the pKa (basic group) stood at 9.97.

As to `Cc1nc2c(O)ccc(O)c2n1C`, the pKa was determined as 9.75 (acidic group) and 6.47 (basic group).

On to `CCCNCC[NH2+]CCC`, for which, for the setting “basic group”, the pKa was 7.53.

On to `CCN(CC)CCCC(C)Nc1ccnc2ccc(OC)cc12` (stereo not drawn), for which, where the note is “basic group”, the pKa is 10.2.

Regarding `CC(=O)c1cccc(NS(=O)(=O)C(F)(F)F)c1`, the pKa (acidic group) worked out at 3.75.

Compound `O=C(O)C(CO)[NH2+]Cc1cc(Cl)ccc1O` (stereo not drawn) came in with a pKa (acidic group) of 2.12.

`Oc1ccc(Cl)c2ccccc12` returned a pKa (acidic group) of 8.64.

In turn, `COC(=O)CCCc1c[nH]cn1` yielded a pKa (basic group) of 7.33.

The compound `Cc1ccc(C)c(C(=O)O)c1` registered a pKa (acidic group) of 3.97.

Take `CCC(CO)NCl` (stereo not drawn): the pKa (basic group) stood at 1.55.

For `CC1CCCCC1=N` (stereo not drawn), the pKa (basic group) amounted to 9.38.

For the setting “acidic group”, `S=C(S)NC1CCCCC1` came in with a pKa of 2.95.

With `CCCCC1(CC)C(=O)NC(=S)NC1=O`, the pKa (acidic group) stood at 7.37.

(Values after the pKa sets of Baltruschat and Czodrowski (2020).)
